{
  "source": "paper PMC5218480",
  "about": "(PLoS ONE, 2017)",
  "test_system": "MV-4-11 cells",
  "test": "Gene expression microarray analysis (Affymetrix PrimeView) and GSEA",
  "format": "cell-based, human",
  "design": "RFU PODN (11730768_x_at) / Fold change /veh PODN (11730768_x_at) / RFU LINC00158 (11744669_a_at) / Fold change /veh LINC00158 (11744669_a_at) / RFU DUSP10 (11751237_a_at) / Fold change /veh DUSP10 (11751237_a_at) / RFU ID3 (11757404_x_at) / Fold change /veh ID3 (11757404_x_at) / RFU PLEKHG5 (11737974_s_at) / Fold change /veh PLEKHG5 (11737974_s_at) / RFU LRRC4B (11730491_at) / Fold change /veh LRRC4B (11730491_at) / RFU GIMAP4 (11747438_a_at) / Fold change /veh GIMAP4 (11747438_a_at) / RFU KRT8 (11758183_x_at) / Fold change /veh KRT8 (11758183_x_at) / RFU CNN1 (11734310_a_at) / Fold change /veh CNN1 (11734310_a_at) / RFU VPS37D (11726825_at) / Fold change /veh VPS37D (11726825_at) / RFU C10orf10 (11716522_x_at) / Fold change /veh C10orf10 (11716522_x_at) / RFU KIR2DL2 /// KIR2DL4 /// KIR2DL5A /// KIR2DL5B /// KIR2DS1 /// KIR2DS2 /// KIR2DS3 /// KIR2DS4 /// KIR3DL3 /// KIR3DL3 /// KIR3DS1 (11738374_at) / Fold change /veh KIR2DL2 /// KIR2DL4 /// KIR2DL5A /// KIR2DL5B /// KIR2DS1 /// KIR2DS2 /// KIR2DS3 /// KIR2DS4 /// KIR3DL3 /// KIR3DL3 /// KIR3DS1 (11738374_at) / RFU C1QL1 (11718748_at) / Fold change /veh C1QL1 (11718748_at) / RFU TMPRSS4 (11747572_a_at) / Fold change /veh TMPRSS4 (11747572_a_at) / RFU HAMP (11756126_x_at) / Fold change /veh HAMP (11756126_x_at) / RFU RNFT2 (11725882_a_at) / Fold change /veh RNFT2 (11725882_a_at) / RFU NR4A2 (11747474_a_at) / Fold change /veh NR4A2 (11747474_a_at) / RFU ABCC12 (11746883_a_at) / Fold change /veh ABCC12 (11746883_a_at) / RFU TMEM136 (11760407_x_at) / Fold change /veh TMEM136 (11760407_x_at) / RFU CLDN22 /// WWC2 (11732394_at) / Fold change /veh CLDN22 /// WWC2 (11732394_at) / RFU HLA-DPB1 (11760878_x_at) / Fold change /veh HLA-DPB1 (11760878_x_at) / RFU SPINT1 (11716480_a_at) / Fold change /veh SPINT1 (11716480_a_at) / RFU GAP43 (11754022_s_at) / Fold change /veh GAP43 (11754022_s_at) / RFU A4GNT (11735810_at) / Fold change /veh A4GNT (11735810_at) / RFU PRB3 (11715151_x_at) / Fold change /veh PRB3 (11715151_x_at) / RFU TUBB4B (11761932_at) / Fold change /veh TUBB4B (11761932_at) / RFU CAPN14 (11732068_a_at) / Fold change /veh CAPN14 (11732068_a_at) / RFU TMCC2 (11721928_a_at) / Fold change /veh TMCC2 (11721928_a_at) / RFU IRGQ (11745062_a_at) / Fold change /veh IRGQ (11745062_a_at) / RFU FAM174B (11720279_a_at) / Fold change /veh FAM174B (11720279_a_at) / RFU TMPRSS4 (11748680_a_at) / Fold change /veh TMPRSS4 (11748680_a_at) / RFU FAM212B (11763350_a_at) / Fold change /veh FAM212B (11763350_a_at) / RFU PLEKHG5 (11743358_a_at) / Fold change /veh PLEKHG5 (11743358_a_at) / RFU ZSCAN30 (11745921_a_at) / Fold change /veh ZSCAN30 (11745921_a_at) / RFU CMKLR1 (11741424_a_at) / Fold change /veh CMKLR1 (11741424_a_at) / RFU LOC101060620 /// MAPK8IP1 (11723275_at) / Fold change /veh LOC101060620 /// MAPK8IP1 (11723275_at) / RFU SPTSSB (11747773_x_at) / Fold change /veh SPTSSB (11747773_x_at) / RFU PRSS12 (11739890_at) / Fold change /veh PRSS12 (11739890_at) / RFU BIN1 (11741810_x_at) / Fold change /veh BIN1 (11741810_x_at) / RFU WNT11 (11732464_a_at) / Fold change /veh WNT11 (11732464_a_at) / RFU C10orf10 (11716521_a_at) / Fold change /veh C10orf10 (11716521_a_at) / RFU C5orf56 (11738089_at) / Fold change /veh C5orf56 (11738089_at) / RFU CYB561 (11721691_x_at) / Fold change /veh CYB561 (11721691_x_at) / RFU ANKRD19P (11752326_a_at) / Fold change /veh ANKRD19P (11752326_a_at) / RFU OR2T12 /// OR2T33 /// OR2T8 (11738714_s_at) / Fold change /veh OR2T12 /// OR2T33 /// OR2T8 (11738714_s_at) / RFU VCAN (11748164_a_at) / Fold change /veh VCAN (11748164_a_at) / RFU JSRP1 (11732532_at) / Fold change /veh JSRP1 (11732532_at) / RFU KRTAP10-11 (11738290_x_at) / Fold change /veh KRTAP10-11 (11738290_x_at) / RFU MYO3A (11730013_a_at) / Fold change /veh MYO3A (11730013_a_at) / RFU EBF3 (11725865_a_at) / Fold change /veh EBF3 (11725865_a_at) / RFU CAMK2N1 (11719241_x_at) / Fold change /veh CAMK2N1 (11719241_x_at) / RFU C5orf56 (11738088_a_at) / Fold change /veh C5orf56 (11738088_a_at) / RFU OLFML3 (11715873_a_at) / Fold change /veh OLFML3 (11715873_a_at) / RFU LOC100653217 /// NTM (11731650_a_at) / Fold change /veh LOC100653217 /// NTM (11731650_a_at) / RFU MAPK11 (11762145_a_at) / Fold change /veh MAPK11 (11762145_a_at) / RFU FIZ1 (11724087_x_at) / Fold change /veh FIZ1 (11724087_x_at) / RFU OASL (11726364_x_at) / Fold change /veh OASL (11726364_x_at) / RFU SOX15 (11748057_x_at) / Fold change /veh SOX15 (11748057_x_at) / RFU CD79A (11719716_a_at) / Fold change /veh CD79A (11719716_a_at) / RFU HIST1H1D (11736915_at) / Fold change /veh HIST1H1D (11736915_at) / RFU CASKIN2 (11723855_a_at) / Fold change /veh CASKIN2 (11723855_a_at) / RFU LOC730098 (11760151_x_at) / Fold change /veh LOC730098 (11760151_x_at) / RFU OR4N2 (11742367_at) / Fold change /veh OR4N2 (11742367_at) / RFU PRRT2 (11749266_a_at) / Fold change /veh PRRT2 (11749266_a_at) / RFU SNX32 (11753110_a_at) / Fold change /veh SNX32 (11753110_a_at) / RFU CDHR5 (11726645_a_at) / Fold change /veh CDHR5 (11726645_a_at) / RFU RCAN1 (11760418_a_at) / Fold change /veh RCAN1 (11760418_a_at) / RFU FAM167A (11723789_a_at) / Fold change /veh FAM167A (11723789_a_at) / RFU FAM26E (11764081_at) / Fold change /veh FAM26E (11764081_at) / RFU ISYNA1 (11749810_s_at) / Fold change /veh ISYNA1 (11749810_s_at) / RFU ACY1 (11761880_at) / Fold change /veh ACY1 (11761880_at) / RFU 11764098_at / Fold change /veh 11764098_at / RFU SAMD14 (11745864_x_at) / Fold change /veh SAMD14 (11745864_x_at) / RFU NPB (11741838_a_at) / Fold change /veh NPB (11741838_a_at) / RFU TMPRSS6 (11731388_a_at) / Fold change /veh TMPRSS6 (11731388_a_at) / RFU KRTAP10-2 (11738614_at) / Fold change /veh KRTAP10-2 (11738614_at) / RFU ARHGAP8 /// PRR5-ARHGAP8 (11727945_x_at) / Fold change /veh ARHGAP8 /// PRR5-ARHGAP8 (11727945_x_at) / RFU KRTAP5-7 /// NADSYN1 (11734609_at) / Fold change /veh KRTAP5-7 /// NADSYN1 (11734609_at) / RFU RASL12 (11751679_a_at) / Fold change /veh RASL12 (11751679_a_at) / RFU CDKN2B (11736163_a_at) / Fold change /veh CDKN2B (11736163_a_at) / RFU PRF1 (11729649_at) / Fold change /veh PRF1 (11729649_at) / RFU, ZNF638 /// ZNF638-IT1 / Fold change vs veh, ZNF638 /// ZNF638-IT1 / RFU, PANK3 / Fold change vs veh, PANK3 / RFU, SH3YL1 / Fold change vs veh, SH3YL1 / RFU, ZEB2 / Fold change vs veh, ZEB2 / RFU, NRIP1 / Fold change vs veh, NRIP1 / RFU, PTTG1IP / Fold change vs veh, PTTG1IP / RFU, CAPN2 / Fold change vs veh, CAPN2 / RFU, MED14 / Fold change vs veh, MED14 / RFU, SNORA58 / Fold change vs veh, SNORA58 / RFU, C1orf63 / Fold change vs veh, C1orf63 / RFU, LRRFIP1 / Fold change vs veh, LRRFIP1 / RFU, NDUFAF7 / Fold change vs veh, NDUFAF7 / RFU, SLC12A2 / Fold change vs veh, SLC12A2 / RFU, IBTK / Fold change vs veh, IBTK / RFU, ESF1 / Fold change vs veh, ESF1 / Fold change vs veh, TMEM50B / RFU, TAOK1 / Fold change vs veh, TAOK1 / RFU, ACBD3 / Fold change vs veh, ACBD3 / RFU, TMA16 / Fold change vs veh, TMA16 / RFU, RWDD3 / Fold change vs veh, RWDD3 / RFU, BCAT1 / Fold change vs veh, BCAT1 / RFU, EDEM3 / Fold change vs veh, EDEM3 / RFU, TMEM33 / Fold change vs veh, TMEM33 / RFU, WDR75 / Fold change vs veh, WDR75 / RFU, AHCTF1 / Fold change vs veh, AHCTF1 / RFU, TFRC / Fold change vs veh, TFRC / RFU, ZDHHC17 / Fold change vs veh, ZDHHC17 / RFU, NOM1 / Fold change vs veh, NOM1 / RFU, ARL8B / Fold change vs veh, ARL8B / RFU, ZBTB11 / Fold change vs veh, ZBTB11 / RFU, TAMM41 / Fold change vs veh, TAMM41 / RFU, KIAA1704 /// LOC100996395 / Fold change vs veh, KIAA1704 /// LOC100996395 / RFU, ING1 / Fold change vs veh, ING1 / RFU, TRMT61B / Fold change vs veh, TRMT61B / RFU, FUBP3 / Fold change vs veh, FUBP3 / RFU, TP53 / Fold change vs veh, TP53 / RFU, TNKS2 / Fold change vs veh, TNKS2 / RFU, ZFP14 / Fold change vs veh, ZFP14 / RFU, ACTR2 / Fold change vs veh, ACTR2 / RFU, PPP3R1 / Fold change vs veh, PPP3R1 / RFU, PIK3R1 / Fold change vs veh, PIK3R1 / RFU, HNRNPA1 / Fold change vs veh, HNRNPA1 / RFU, RNF170 / Fold change vs veh, RNF170 / RFU, ZNF28 / Fold change vs veh, ZNF28 / RFU, RNGTT / Fold change vs veh, RNGTT / RFU, OGT / Fold change vs veh, OGT / RFU, BRD1 / Fold change vs veh, BRD1 / RFU, MARS / Fold change vs veh, MARS / RFU, ZNF655 / Fold change vs veh, ZNF655 / RFU, FAHD1 / Fold change vs veh, FAHD1 / RFU, BDP1 / Fold change vs veh, BDP1 / RFU, LRRCC1 / Fold change vs veh, LRRCC1 / RFU, ARID1A / Fold change vs veh, ARID1A / RFU, ZNF146 / Fold change vs veh, ZNF146 / RFU, ZNF330 / Fold change vs veh, ZNF330 / RFU, GPN3 / Fold change vs veh, GPN3 / RFU, C9orf123 / Fold change vs veh, C9orf123 / RFU, N4BP2L2 / Fold change vs veh, N4BP2L2 / RFU, ARFIP1 / Fold change vs veh, ARFIP1 / RFU, FAM179B / Fold change vs veh, FAM179B / RFU, BCL10 / Fold change vs veh, BCL10 / RFU, UHRF1BP1L / Fold change vs veh, UHRF1BP1L / RFU, BET1 / Fold change vs veh, BET1 / RFU, CNOT2 / Fold change vs veh, CNOT2 / RFU, ZNF268 / Fold change vs veh, ZNF268 / Fold change vs veh, ZNF507 / RFU, DGCR2 / Fold change vs veh, DGCR2 / RFU, WDSUB1 / Fold change vs veh, WDSUB1 / Fold change vs veh, HSP90B1 /// MIR3652 / RFU, ADSS / Fold change vs veh, ADSS / RFU, GK / Fold change vs veh, GK / RFU, ZNF148 / Fold change vs veh, ZNF148 / RFU, TAF9 / Fold change vs veh, TAF9 / RFU, SLC1A5 / Fold change vs veh, SLC1A5 / RFU, SLMO2 / Fold change vs veh, SLMO2 / RFU, ABCC4 / Fold change vs veh, ABCC4 / RFU, LOC101060439 /// RAP1B / Fold change vs veh, LOC101060439 /// RAP1B / RFU, RFX7 / Fold change vs veh, RFX7 / RFU, GTPBP10 / Fold change vs veh, GTPBP10 / RFU, CNEP1R1 / Fold change vs veh, CNEP1R1 / RFU, BIVM-ERCC5 /// ERCC5 / Fold change vs veh, BIVM-ERCC5 /// ERCC5 / RFU, ILF3 / Fold change vs veh, ILF3 / RFU 11762660_at / Fold change /veh 11762660_at / RFU VCAN (11757783_s_at) / Fold change /veh VCAN (11757783_s_at) / RFU DDX43 (11728927_at) / Fold change /veh DDX43 (11728927_at) / RFU KRT8 (11758188_x_at) / Fold change /veh KRT8 (11758188_x_at) / RFU NKD1 (11759106_at) / Fold change /veh NKD1 (11759106_at) / RFU SRD5A1 (11742802_a_at) / Fold change /veh SRD5A1 (11742802_a_at) / RFU TPSAB1 /// TPSB2 (11721975_s_at) / Fold change /veh TPSAB1 /// TPSB2 (11721975_s_at) / RFU GSTM3 (11746129_a_at) / Fold change /veh GSTM3 (11746129_a_at) / RFU IL23R (11737362_x_at) / Fold change /veh IL23R (11737362_x_at) / RFU TMEM51 (11727254_a_at) / Fold change /veh TMEM51 (11727254_a_at) / RFU PIWIL2 (11732686_x_at) / Fold change /veh PIWIL2 (11732686_x_at) / RFU ORM1 (11744905_x_at) / Fold change /veh ORM1 (11744905_x_at) / RFU CCDC152 (11743942_at) / Fold change /veh CCDC152 (11743942_at) / RFU ECM1 (11717891_a_at) / Fold change /veh ECM1 (11717891_a_at) / RFU IL23R (11748794_a_at) / Fold change /veh IL23R (11748794_a_at) / RFU TNFAIP8L3 (11732012_x_at) / Fold change /veh TNFAIP8L3 (11732012_x_at) / RFU MBOAT4 (11741988_at) / Fold change /veh MBOAT4 (11741988_at) / RFU 11764193_at / Fold change /veh 11764193_at / RFU TMEM53 (11763286_at) / Fold change /veh TMEM53 (11763286_at) / RFU MAGEB2 (11727129_at) / Fold change /veh MAGEB2 (11727129_at) / RFU TMEM200A (11744735_a_at) / Fold change /veh TMEM200A (11744735_a_at) / RFU CCDC152 (11751479_a_at) / Fold change /veh CCDC152 (11751479_a_at) / RFU FAM211A (11726209_a_at) / Fold change /veh FAM211A (11726209_a_at) / RFU RGS16 (11746705_a_at) / Fold change /veh RGS16 (11746705_a_at) / RFU VCAN (11755009_s_at) / Fold change /veh VCAN (11755009_s_at) / RFU RHOB (11743442_s_at) / Fold change /veh RHOB (11743442_s_at) / RFU RGS16 (11720943_a_at) / Fold change /veh RGS16 (11720943_a_at) / RFU RGS16 (11720944_at) / Fold change /veh RGS16 (11720944_at) / RFU, VPS4B / Fold change vs veh, VPS4B / RFU, CREB1 / Fold change vs veh, CREB1 / RFU, DNAJC13 / Fold change vs veh, DNAJC13 / RFU, GNAQ / Fold change vs veh, GNAQ / RFU, CDK5R1 / Fold change vs veh, CDK5R1 / RFU, ZRANB3 / Fold change vs veh, ZRANB3 / RFU, CUL4A / Fold change vs veh, CUL4A / RFU, CCNY / Fold change vs veh, CCNY / RFU, UFL1 / Fold change vs veh, UFL1 / RFU, COG3 / Fold change vs veh, COG3 / RFU, DIAPH2 / Fold change vs veh, DIAPH2 / RFU, SKA2 / Fold change vs veh, SKA2 / RFU, AFF3 / Fold change vs veh, AFF3 / RFU, LMF1 / Fold change vs veh, LMF1 / RFU, IPO11 / Fold change vs veh, IPO11 / RFU, DFFB / Fold change vs veh, DFFB / RFU, FOXP1 / Fold change vs veh, FOXP1 / RFU, CARD8 / Fold change vs veh, CARD8 / RFU, STRN3 / Fold change vs veh, STRN3 / RFU, ADK / Fold change vs veh, ADK / RFU, RASSF2 / Fold change vs veh, RASSF2 / RFU, WIPF1 / Fold change vs veh, WIPF1 / RFU, LARP1B / Fold change vs veh, LARP1B / RFU, RASA1 / Fold change vs veh, RASA1 / RFU, RB1 / Fold change vs veh, RB1 / RFU, PPFIA1 / Fold change vs veh, PPFIA1 / RFU, MAT2A / Fold change vs veh, MAT2A / RFU, CCT5 / Fold change vs veh, CCT5 / RFU, WDR92 / Fold change vs veh, WDR92 / RFU, CUX1 / Fold change vs veh, CUX1 / RFU, TTC7A / Fold change vs veh, TTC7A / RFU, TMEM135 / Fold change vs veh, TMEM135 / RFU, DEPTOR / Fold change vs veh, DEPTOR / RFU, CPM / Fold change vs veh, CPM / RFU, DNAJB6 / Fold change vs veh, DNAJB6 / RFU, CACNA2D3 / Fold change vs veh, CACNA2D3 / RFU, DTX4 / Fold change vs veh, DTX4 / RFU, TFCP2 / Fold change vs veh, TFCP2 / RFU, GMCL1 /// GMCL1P1 / Fold change vs veh, GMCL1 /// GMCL1P1 / RFU, AEBP2 / Fold change vs veh, AEBP2 / RFU, SNHG1 /// SNORD22 /// SNORD25 /// SNORD26 /// SNORD27 /// SNORD28 /// SNORD29 /// SNORD31 / Fold change vs veh, SNHG1 /// SNORD22 /// SNORD25 /// SNORD26 /// SNORD27 /// SNORD28 /// SNORD29 /// SNORD31 / Fold change (Aza/veh), C12orf56 (ProbeSet 11735607_a_at) / Fold change (ACY-1035/veh), C12orf56 (ProbeSet 11735607_a_at) / Fold change (Aza/veh), FGFR1OP (ProbeSet 11751329_s_at) / Fold change (ACY-1035/veh), FGFR1OP (ProbeSet 11751329_s_at) / Fold change (Aza/veh), VPS36 (ProbeSet 11739960_a_at) / Fold change (ACY-1035/veh), VPS36 (ProbeSet 11739960_a_at) / RFU SYPL1 (11715823_x_at) / Fold change /veh SYPL1 (11715823_x_at) / RFU IGFBP7 (11715501_s_at) / Fold change /veh IGFBP7 (11715501_s_at) / RFU REEP3 (11722064_at) / Fold change /veh REEP3 (11722064_at) / RFU IGLL1 (11728026_x_at) / Fold change /veh IGLL1 (11728026_x_at): dose or concentration left out as unconfirmed",
  "details": "MV-4-11 cells, 48 hours",
  "data": [
    {"compound": "Nc1ccc(-c2cccs2)cc1NC(=O)c1ccc2c(c1)cc(C1CC1)n2CCN1CCOCC1", "note": "[ACY-1035]", "values": [
      {"measurement": "RFU WNT11 (11732464_a_at)", "value": 8.64, "unit": "RFU"}
    ]}
  ]
}
